Assay: xn = mol fraction of the nth substance listed

C1CNCCN1.C1CNCCN1.C1CNCCN1.O=C(O)CC(O)(CC(=O)O)C(=O)O.O=C(O)CC(O)(CC(=O)O)C(=O)O + O
viscosity [mPa·s], 101.3 kPa
Settings	293.15 K	303.15 K	313.15 K
x1 = 0.000319	1.035	0.826	0.679
x1 = 0.000781	1.073	0.857	0.708
x1 = 0.000911	1.086	0.865	0.716
x1 = 0.00105	1.101	0.877	0.725
x1 = 0.00119	1.115	0.888	0.733
x1 = 0.00134	1.132	0.901	0.743
x1 = 0.00149	1.148	0.914	0.753
x1 = 0.00166	1.166	0.928	0.763
x1 = 0.00179	1.179	0.939	0.771
x1 = 0.001875	1.188	0.945	0.775
x1 = 0.002838	1.303	1.034	0.834

C=CCC[n+]1ccn(CC)c1.[Br-] + O
viscosity [mPa·s], 101.33 kPa
Settings	x1 = 0.001149	x1 = 0.001784	x1 = 0.003604	x1 = 0.005391	x1 = 0.007164	x1 = 0.008843
293.15 K	1.038	1.055	1.095	1.132	1.168	1.206
298.15 K	0.922	0.936	0.971	1.003	1.034	1.067
303.15 K	0.825	0.837	0.867	0.895	0.924	0.95
308.15 K	0.743	0.754	0.781	0.806	0.831	0.854
313.15 K	0.674	0.684	0.708	0.73	0.753	0.772

CC(C)CO + O
Settings	viscosity [mPa·s]
293.15 K, 101.33 kPa, x1 = 0.0049	1.124
293.15 K, 101.33 kPa, x1 = 0.01	1.222
293.15 K, 101.33 kPa, x1 = 0.015	1.332
293.15 K, 101.33 kPa, x1 = 0.021	1.453
298 K, 101 kPa, x2 = 0.2	3.148
298 K, 101 kPa, x2 = 0.4	3.209
299 K, 101 kPa, x2 = 0.1	3.13
299 K, 101 kPa, x2 = 0.45	3.156
300 K, 101 kPa, x2 = 0.3	2.95
303 K, 101 kPa, x1 = 0.01	0.931
303 K, 101 kPa, x2 = 0.1	2.753
303 K, 101 kPa, x2 = 0.2	2.679
303 K, 101 kPa, x2 = 0.3	2.676
303 K, 101 kPa, x2 = 0.4	2.719
303 K, 101 kPa, x2 = 0.45	2.761
303.15 K, 101.33 kPa, x1 = 0.0049	0.899
303.15 K, 101.33 kPa, x1 = 0.01	0.967
303.15 K, 101.33 kPa, x1 = 0.015	1.04
303.15 K, 101.33 kPa, x1 = 0.021	1.119
313 K, 101 kPa, x1 = 0.01	0.7483
313 K, 101 kPa, x2 = 0.1	2.041
313 K, 101 kPa, x2 = 0.2	1.985
313 K, 101 kPa, x2 = 0.3	1.976
313 K, 101 kPa, x2 = 0.4	2.002
313 K, 101 kPa, x2 = 0.45	2.025
313.15 K, 101.33 kPa, x1 = 0.0049	0.721
313.15 K, 101.33 kPa, x1 = 0.01	0.767
313.15 K, 101.33 kPa, x1 = 0.015	0.815
323 K, 101 kPa, x1 = 0.01	0.6161
323 K, 101 kPa, x2 = 0.1	1.55
323 K, 101 kPa, x2 = 0.2	1.51
323 K, 101 kPa, x2 = 0.3	1.502
323 K, 101 kPa, x2 = 0.4	1.517
323 K, 101 kPa, x2 = 0.45	1.531
323.15 K, 101.33 kPa, x1 = 0.0049	0.604
323.15 K, 101.33 kPa, x1 = 0.01	0.642
323.15 K, 101.33 kPa, x1 = 0.015	0.675

CCCCCOC(C)=O + O
303.15 K, 101.3 kPa
Settings	viscosity [mPa·s]
x2 = 0.0121	0.796
x2 = 0.0385	0.801
x2 = 0.0645	0.805
x2 = 0.0655	0.805
x2 = 0.0854	0.809

Cc1nc(C)n(C)c1C + O
viscosity [mPa·s], 100 kPa
Settings	x1 = 0.0159	x1 = 0.035	x1 = 0.0585	x1 = 0.0882	x1 = 0.127
298.15 K	1.258	1.817	2.65	3.86	5.77
303.15 K	1.125	1.61	2.31	3.35	4.91
313.15 K	0.899	1.244	1.733	2.53	3.36
323.15 K	0.756	0.998	1.344	1.806	2.44

O=C([O-])CC(O)(CC(=O)[O-])C(=O)[O-].[NH3+]CCO.[NH3+]CCO.[NH3+]CCO + O
viscosity [mPa·s], 101 kPa
Settings	x1 = 0.0053	x1 = 0.012	x1 = 0.02	x1 = 0.031	x1 = 0.046	x1 = 0.067	x1 = 0.16
293.15 K	1.211	1.575	2.21	3.385	6.303	12.36	106.7
303.15 K	0.9345	1.18	1.608	2.382	4.312	8.015	66.19
313.15 K	0.7529	0.9296	1.227	1.786	3.032	5.371	39.23
323.15 K	0.6242	0.7501	0.9638	1.351	2.228	3.77	21.96

O=C1CCCN1C1CCCCC1 + O
298.15 K, 100 kPa
Settings	viscosity [mPa·s]
x1 = 0.01	1.219
x1 = 0.0196	1.621
x1 = 0.0303	2.139
x1 = 0.0392	2.582
x1 = 0.0484	3.059
x1 = 0.0565	3.503
x1 = 0.0683	4.138
x1 = 0.079	4.749
x1 = 0.0878	5.762
x1 = 0.0982	5.739
x1 = 0.2023	10.42
x1 = 0.2989	12.86
x1 = 0.3988	13.62
x1 = 0.498	13.33
x1 = 0.5984	12.65
x1 = 0.7063	11.87
x1 = 0.7985	11.27
x1 = 0.8996	10.76
x1 = 0.9093	10.71
x1 = 0.9161	10.68
x1 = 0.928	10.65
x1 = 0.9365	10.61
x1 = 0.9461	10.58
x1 = 0.9574	10.52
x1 = 0.9675	10.5
x1 = 0.9784	10.46
x2 = 0.0112	10.41

O=C1OCCO1 + O
298.15 K, 101 kPa
Settings	viscosity [mPa·s]
x1 = 0.0166	0.955
x1 = 0.0221	0.968
x1 = 0.0415	1.038
x1 = 0.0635	1.096
x1 = 0.0897	1.172
x1 = 0.1194	1.253
x1 = 0.1403	1.309
x1 = 0.1625	1.377
x1 = 0.2345	1.519
x1 = 0.3229	1.647
x1 = 0.3784	1.704
x1 = 0.4412	1.751
x1 = 0.5409	1.831
x1 = 0.6443	1.898

CC1CCCO1 (stereo not given) + O=C1CCCC1
298.15 K, 101 kPa
Settings	viscosity [mPa·s]
x1 = 0.0212	1.103
x1 = 0.0637	1.061
x1 = 0.1277	1.001
x1 = 0.1917	0.944
x1 = 0.2563	0.89
x1 = 0.3212	0.84
x1 = 0.3856	0.792
x1 = 0.4507	0.747
x1 = 0.5157	0.705
x1 = 0.5812	0.665
x1 = 0.6466	0.628
x1 = 0.7069	0.596
x1 = 0.7785	0.56
x1 = 0.8445	0.529
x1 = 0.9107	0.5
x1 = 0.9775	0.472

O=C1CCCN1C1CCCCC1 + O=C1CCCN1
298.15 K, 100 kPa
Settings	viscosity [mPa·s]
x1 = 0.0107	13.4
x2 = 0.0201	10.5
x2 = 0.0289	10.56
x2 = 0.0403	10.66
x2 = 0.0491	10.72
x2 = 0.0694	10.86
x2 = 0.08	10.94
x2 = 0.0913	11.02
x2 = 0.0973	11.06
x2 = 0.1019	11.11
x2 = 0.1982	11.73
x2 = 0.2954	12.31
x2 = 0.3091	12.44
x2 = 0.389	12.77
x2 = 0.4916	13.18
x2 = 0.602	13.5
x2 = 0.7053	13.64
x2 = 0.8042	13.66
x2 = 0.902	13.66
x2 = 0.9031	13.63
x2 = 0.9108	13.62
x2 = 0.9153	13.63
x2 = 0.9306	13.59
x2 = 0.9503	13.56
x2 = 0.9597	13.54
x2 = 0.9696	13.49
x2 = 0.979	13.45

O=C(O)CO + O=C(O)[C@@H]1CCCN1
323 K, 100 kPa
Settings	viscosity [mPa·s]
x2 = 0.25	480
x2 = 0.338	1340
x2 = 0.504	8080

ClCC(Cl)Cl + O=S1(=O)CCCC1
viscosity [mPa·s], 100 kPa
Settings	x2 = 0.0188	x2 = 0.1215	x2 = 0.2323	x2 = 0.3466	x2 = 0.4454	x2 = 0.5548	x2 = 0.6864	x2 = 0.8249	x2 = 0.9723
303.15 K	1.202	2.163	3.186	4.237	5.137	6.131	7.307	8.528	9.798
308.15 K	1.108	1.937	2.834	3.752	4.539	5.402	6.428	7.489	8.588
313.15 K	1.024	1.754	2.548	3.369	4.069	4.831	5.738	6.671	7.649

CC(C)CO + OCC(O)CO
viscosity [mPa·s], 101.33 kPa
Settings	x2 = 0.1006	x2 = 0.2008	x2 = 0.2991	x2 = 0.3991	x2 = 0.5003	x2 = 0.6005	x2 = 0.7001	x2 = 0.7997	x2 = 0.8994
298.15 K	4.625	7.894	14.39	26.58	56.03	118.3	233.2	395.9	595.4
308.15 K	3.192	5.58	9.274	15.86	30.35	59.4	110.6	179.4	269.1
318.15 K	2.33	3.788	6.116	9.794	17.19	32.13	55.06	86.54	120.9

O=C(O)CO + OC[C@@H](O)[C@H](O)[C@@H](O)CO
101.33 kPa, x2 = 0.25
Settings	viscosity [mPa·s]
303.15 K	937
313.15 K	446.3
323.15 K	208.9

CCCCCOC(C)=O + OCc1ccccc1
Settings	viscosity [mPa·s]
298.15 K, 101 kPa, x1 = 0.5	1.035

CCCCCOC(C)=O + Oc1ccccc1
Settings	viscosity [mPa·s]
298.15 K, 101 kPa, x2 = 0.5	1.105

Cc1ccccc1O + Oc1ccccc1
298.15 K, 101 kPa
Settings	viscosity [mPa·s]
x2 = 0.1343	7.835
x2 = 0.1973	7.93
x2 = 0.3	8.099
x2 = 0.3881	8.235
x2 = 0.491	8.404
x2 = 0.6283	8.565
x2 = 0.6927	8.645
x2 = 0.7579	8.731
x2 = 0.8003	8.757
x2 = 0.873	8.825
x2 = 0.901	8.851
